The structures appear in SMILES notation. Counter-ions that a name gives are not always drawn.

The target of this assay is FGFR1 active kinase (Homo sapiens, UniProt P11362). Nature of the assay: FGFR Kinase assay - Caliper. Further: 408 µM ATP. The format is biochemical. To be noted: FGFR1 […], 408 uM ATP; mean of n as printed; read-out: FGFR Kinase assay - Caliper, IC50. On the procedure: FGFR Kinase Assay—Caliper
Chain of FGFR1 active kinase (P11362 22-822): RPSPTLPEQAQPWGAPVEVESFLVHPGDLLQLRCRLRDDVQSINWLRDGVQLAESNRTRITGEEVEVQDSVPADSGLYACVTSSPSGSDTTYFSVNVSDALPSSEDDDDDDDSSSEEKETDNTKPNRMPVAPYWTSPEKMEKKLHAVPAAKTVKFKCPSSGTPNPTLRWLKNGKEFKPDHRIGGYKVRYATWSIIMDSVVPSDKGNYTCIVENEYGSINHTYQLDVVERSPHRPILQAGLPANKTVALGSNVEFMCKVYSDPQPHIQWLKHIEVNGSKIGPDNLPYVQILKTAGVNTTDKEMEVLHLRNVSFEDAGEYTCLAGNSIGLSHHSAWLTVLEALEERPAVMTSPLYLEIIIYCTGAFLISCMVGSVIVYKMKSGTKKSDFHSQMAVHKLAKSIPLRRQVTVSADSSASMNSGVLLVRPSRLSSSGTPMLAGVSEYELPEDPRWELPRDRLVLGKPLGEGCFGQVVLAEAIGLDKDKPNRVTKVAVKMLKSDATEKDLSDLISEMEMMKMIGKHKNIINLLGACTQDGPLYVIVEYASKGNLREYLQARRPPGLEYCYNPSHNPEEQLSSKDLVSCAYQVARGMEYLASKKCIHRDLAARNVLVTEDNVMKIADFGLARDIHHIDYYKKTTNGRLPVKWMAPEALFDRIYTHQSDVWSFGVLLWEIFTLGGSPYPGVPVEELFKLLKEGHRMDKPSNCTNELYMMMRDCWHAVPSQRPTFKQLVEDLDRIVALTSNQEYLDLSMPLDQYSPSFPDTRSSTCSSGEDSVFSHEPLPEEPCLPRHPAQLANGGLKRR
To determine inhibition of FGFR activity, kinase assays were conducted using Caliper technology.
Kinase activity assays were performed in Greiner 384-well low volume plates, with a total reaction volume of 12 ul per well. Final concentration of FGFR1 active kinase in each reaction well was 7.2 nM. The substrate for each assay was a custom peptide with fluorescent tag (13 amino acids in length, […] with the fluorescene tag on the first K).
Compounds were serially diluted in 5% (v/v) DMSO, before being added to assay plates. The Enzyme (at 7.2 nM [final]) and Substrate (at 3.6 uM [final]) were added separately to the compound plates, in reaction buffer [comprising: 50 mM MOPS (Sigma, Catalogue No. M1254)—pH 6.5, 0.004% Triton (Sigma, Catalogue No. X-100), 2.4 mM DTT, 12 mM MgCl2, 408 uM ATP] resulting in a final DMSO concentration in the reaction mix of 0.8%.
Assay plates were incubated at room temperature for 1.5 h, before the reaction was stopped with the addition of buffer [comprising: 100 mM HEPES—pH7.5, 0.033% Brij-35 (Sigma Catalogue No. B4184), 0.22% Caliper Coating Reagent #3 (Caliper Life Sciences Catalogue No. 760050), 88 mM EDTA, 5% DMSO]. Stopped assay plates were then read using the Caliper LabChip® LC3000 (which uses microfludics to measure a shift in mobility between fluorescent labelled peptide and the FGFR1 kinase—phosphorylated form of this peptide).
In the assay, compounds were tested at a range of concentrations.
Percentage inhibition at 1 uM, as expressed herein, is a calculated value based on the curve fit that was generated experimentally. From the fitted curve plot, the effect of compound at a concentration of 1 uM was calculated as a percentage inhibition. The IC50 is the concentration of compound, which inhibits FGFR1 kinase activity by 50% in the context of this assay.
What is called IC50 is the concentration needed to halve the response being measured. `COc1cc(CCc2cc(NC(=O)c3ccc(N4CCNCC4)s3)n[nH]2)cc(OC)c1` [Example 60, N-[5-[2-(3,5-Dimethoxyphenyl)ethyl]-1H-pyrazol-3-yl]-5-piperazin-1-yl-thiophene-2-carboxamide (2,2,2-trifluoroacetic Acid Salt)]: the IC50 stood at 22 nM.

For the compound `COC(=O)c1ccc(C(=O)Nc2cc(CCc3cccc(OC)c3)n[nH]2)nc1` [Example 61, Methyl 6-[[5-[2-(3-methoxyphenyl)ethyl]-2H-pyrazol-3-yl]carbamoyl]pyridine-3-carboxylate], the 50% inhibitory concentration (IC50) was 68000 nM.

In the case of `COc1cccc(CCc2cc(NC(=O)c3ccc(Cl)nc3)[nH]n2)c1` [Example 62, 6-Chloro-N-[5-[2-(3-methoxyphenyl)ethyl]-2H-pyrazol-3-yl]pyridine-3-carboxamide], the IC50 turned out to be 4540 nM.

Consider `COc1cccc(CCc2cc(NC(=O)c3ccc(C#N)nc3)[nH]n2)c1` [Example 63, 6-Cyano-N-[5-[2-(3-methoxyphenyl)ethyl]-2H-pyrazol-3-yl]pyridine-3-carboxamide], for which the IC50 was 3770 nM.

Take `COc1cccc(CCc2cc(NC(=O)c3cc(O)ccn3)[nH]n2)c1` [Example 64, 4-Hydroxy-N-[5-[2-(3-methoxyphenyl)ethyl]-2H-pyrazol-3-yl]pyridine-2-carboxamide]: the half-inhibitory concentration (IC50) was 5000 nM.

`COc1cccc(CCc2cc(NC(=O)c3ccc(CCN4CCCC4)nc3)[nH]n2)c1` [Example 65, N-[5-[2-(3-Methoxyphenyl)ethyl]-2H-pyrazol-3-yl]-6-(2-pyrrolidin-1-ylethyl)pyridine-3-carboxamide]: the half-inhibitory concentration (IC50) is 240 nM.

With `COc1cccc(CCc2cc(NC(=O)c3ccc(C(=O)O)nc3)[nH]n2)c1` [Example 66, 5-[[5-[2-(3-Methoxyphenyl)ethyl]-2H-pyrazol-3-yl]carbamoyl]pyridine-2-carboxylic Acid], the half-inhibitory concentration (IC50) amounted to 1020 nM.

With `COC(=O)c1ccc(C(=O)Nc2cc(CCc3cccc(OC)c3)n[nH]2)cn1` [Example 67, Methyl 5-[[5-[2-(3-methoxyphenyl)ethyl]-2H-pyrazol-3-yl]carbamoyl]pyridine-2-carboxylate], the concentration for half-maximal inhibition (IC50) is 2860 nM.

With `COc1cc(COc2cc(NC(=O)c3ccc(N4CCN(C)CC4)cn3)[nH]n2)cc(OC)c1` [Example 69, N-[5-[(3,5-Dimethoxyphenyl)methoxy]-2H-pyrazol-3-yl]-5-(4-methylpiperazin-1-yl)pyridine-2-carboxamide], the 50% inhibitory concentration (IC50) amounted to 122 nM.

On to `COc1cc(COc2cc(NC(=O)c3ccc(NCCN(C)C)cc3)[nH]n2)cc(OC)c1` [Example 70, N-[5-[(3,5-Dimethoxyphenyl)methoxy]-2H-pyrazol-3-yl]-4-(2-dimethylaminoethylamino)benzamide Hydrochloride], for which the IC50 stood at 31 nM.

For the compound `COc1ccc(C(=O)Nc2cc(OCc3cc(OC)cc(OC)c3)n[nH]2)cc1` [Example 71, N-[5-[(3,5-Dimethoxyphenyl)methoxy]-2H-pyrazol-3-yl]-4-methoxy-benzamide], the half-maximal inhibitory concentration (IC50) was found to be 157 nM.

Turning to `COc1cc(COc2cc(NC(=O)c3ccc(N4CCNCC4)nc3)[nH]n2)cc(OC)c1` [Example 72, N-[5-[(3,5-Dimethoxyphenyl)methoxy]-2H-pyrazol-3-yl]-6-piperazin-1-yl-pyridine-3-carboxamide], the IC50 amounted to 25 nM.

Regarding `COc1cc(COc2cc(NC(=O)c3cnc(N4CCN(C)CC4)nc3)n[nH]2)cc(OC)c1` [Example 73, N-[5-[(3,5-Dimethoxyphenyl)methoxy]-1H-pyrazol-3-yl]-2-(4-methylpiperazin-1-yl)pyrimidine-5-carboxamide], the 50% inhibitory concentration (IC50) worked out at 44 nM.

On to `COc1cc(COc2cc(NC(=O)c3cccc(N4CCNCC4)c3)n[nH]2)cc(OC)c1` [Example 74, N-[5-[(3,5-Dimethoxyphenyl)methoxy]-1H-pyrazol-3-yl]-3-piperazin-1-yl-benzamide], for which the IC50 is 130 nM.

For `COc1cc(COc2cc(NC(=O)c3ccc(N4CCCNCC4)cc3)n[nH]2)cc(OC)c1` [Example 75, 4-(1,4-Diazepan-1-yl)-N-[5-[(3,5-dimethoxyphenyl)methoxy]-1H-pyrazol-3-yl]benzamide Hydrochloride], the half-maximal inhibitory concentration (IC50) was 8.5 nM.

The record behind these values is patent US10301267B2, “Compounds” (AstraZeneca AB, priority 2006, dated 2019).
